Laboratory results reported in US20260374739A1, “SMALL MOLECULAR WEIGHT CHEMICAL COMPOUND TO ANTAGONIZE EPH-EPHRIN TETRAMERIZATION AND INHIBIT BIDIRECTIONAL SIGNALING” (THE BOARD OF REGENTS OF THE UNIVERSITY OF TEXAS SYSTEM, priority 2022, published 2026).
“And” between values parts separate entries of the source, which are not always exact repeats. Equal values may be shown once. Each block holds one compound with its values, some of them ahead of it.

Assays:
EphB1-EphrinB2 (EB2) = biological target: T1, EphB1-EphrinB2 (EB2) (Rattus norvegicus, UniProt P09759); assay: Alpha assay EphB1-EphrinB2 (EB2) interaction; type: binding, mouse EB2
T1 construct: rat EphB1-Fc residues 18-538; mouse EB2-His residues 18-232; purchased R&D Systems (EphB1-Fc); Sino Biologicals (EB2-His)
T1 sequence (P09759 18-538): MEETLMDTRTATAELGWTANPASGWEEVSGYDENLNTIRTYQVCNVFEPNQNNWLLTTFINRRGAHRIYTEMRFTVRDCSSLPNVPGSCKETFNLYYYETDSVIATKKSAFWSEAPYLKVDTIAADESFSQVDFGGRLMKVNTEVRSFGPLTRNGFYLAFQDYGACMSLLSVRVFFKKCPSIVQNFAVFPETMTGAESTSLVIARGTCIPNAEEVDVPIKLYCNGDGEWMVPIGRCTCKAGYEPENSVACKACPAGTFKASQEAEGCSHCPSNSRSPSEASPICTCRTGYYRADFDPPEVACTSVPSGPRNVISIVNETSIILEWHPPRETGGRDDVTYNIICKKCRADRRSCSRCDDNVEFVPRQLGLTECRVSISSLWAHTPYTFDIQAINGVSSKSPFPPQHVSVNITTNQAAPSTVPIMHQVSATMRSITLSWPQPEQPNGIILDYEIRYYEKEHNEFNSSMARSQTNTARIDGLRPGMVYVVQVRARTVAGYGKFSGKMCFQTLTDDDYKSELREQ
Excerpt: A chemiluminescent AlphaScreen™ bead-based proximity assay suitable for HTS was developed to measure the receptor-ligand interaction formed between EphB1 and EphrinB2 (EB2) ectodomains (FIG. 3). Here, when singlet oxygen molecules generated by high energy irradiation of donor beads travel over a constrained distance to excite acceptor beads, a chemiluminescent signal is generated and detected. If an analyte interferes with the EphB1-EB2 protein-protein interaction, close proximity of the donor and acceptor beads will be disrupted resulting in diminished or lost energy transfer and reduced acceptor bead emission.
Test was conducted in the Alpha assay, to see if purified soluble Reelin (previously shown to bind EphB1 ectodomain) can interfere with EphB1-EB2 binding.
The EphB1-EB2 screen was conducted using 0.8 nM of each protein, 50 ng beads per well, and assessed at 5 μM a library of −240,000 small, drug-like chemicals. […] They were also tested in a counter screen designed to identify non-specific compounds. Here, a single-protein Alpha assay was set up using a dual-tagged EphB2-His-Fc ectodomain protein that can bind both donor and acceptor beads to bring them into proximity. If a selected compound simply absorbs the chemiluminescent signal or interferes with bead function/binding or protein folding, it was hypothesized that it would also reduce signals in the single protein assay, and would consider it a false positive.

EphB2-EphrinB2 = biological target: T2, EphB2-EphrinB2 (Mus musculus, UniProt P54763); assay: Octet, immobilized mouse EphB2 binding to mouse EphrinB2; conditions: for IC50: immobilized mouse EphB2, 50 nM soluble mouse EphrinB2
T2 sequence (P54763 19-543 limits assumed): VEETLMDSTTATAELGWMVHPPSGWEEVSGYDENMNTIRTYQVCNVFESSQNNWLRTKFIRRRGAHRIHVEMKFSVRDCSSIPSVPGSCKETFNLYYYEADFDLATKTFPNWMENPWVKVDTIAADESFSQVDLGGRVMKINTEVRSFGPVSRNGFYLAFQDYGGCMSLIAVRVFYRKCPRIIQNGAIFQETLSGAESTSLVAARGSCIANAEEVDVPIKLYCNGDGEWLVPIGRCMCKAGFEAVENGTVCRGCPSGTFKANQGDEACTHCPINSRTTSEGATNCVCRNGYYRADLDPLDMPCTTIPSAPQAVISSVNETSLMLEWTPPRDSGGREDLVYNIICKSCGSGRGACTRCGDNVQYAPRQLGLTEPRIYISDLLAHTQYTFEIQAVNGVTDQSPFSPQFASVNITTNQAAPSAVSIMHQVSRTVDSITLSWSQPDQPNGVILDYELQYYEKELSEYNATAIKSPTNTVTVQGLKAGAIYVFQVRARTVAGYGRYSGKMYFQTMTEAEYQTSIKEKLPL
Excerpt: The novel compound A20-I is a halogen replacement that changes the 7-bromine in A20 for iodine and had enhanced tetramerization inhibitor activity (FIGS. 38A-38D). This is evident when comparing results of A20-I and A20 salt compounds on the interaction of immobilized mouse EphB2 ectodomain binding to soluble mouse EphrinB2 ectodomain (FIG. 38A and FIG. 38B) or soluble human EphrinA5 (FIG. 38C). […] During these interactions of immobilized EphB ectodomains binding to soluble EphrinB2, the tetramer is much more surmountable by addition of an active compound than for the reverse experiment where EphrinB2 is immobilized and EphB2 is the soluble component in the assay (see FIG. 11, FIG. 17, and FIG. 25A-FIG. 25C). It is believed that the more resistant unsurmountable tetramer formed by immobilized EphrinB2 binding to soluble EphB ectodomains provides for the most rigorous test for determining IC50 values and thus utilizing this EphrinB2-EphB2 assay for analysis of all compounds, provide uniformity in observed results. The results described herein with A20-I and using the human EphrinB2-EphB2 interaction indicates replacements can be made in the 7-bromine in A20 that lead to enhanced tetramerization inhibitor activity.

[1] = Absolute Association IC50, mEphB2-mEphrinB2, association, absolute
[2] = Absolute Dissociation IC50, mEphB2-mEphrinB2, dissociation, absolute
[3] = Relative Association IC50, mEphB2-mEphrinB2, association, relative
[4] = Relative Dissociation IC50, mEphB2-mEphrinB2, dissociation, relative

SMILES: Oc1ccc(CN2CCN(c3ccc(Br)cc3)CC2)c2cccnc12 [Compound 26, 5-((4-(4-bromophenyl)piperazin-1-yl)methyl)quinolin-8-ol]
antagonism of EphB1-EB2 (EphB1-EphrinB2 (EB2)): strong dose-dependent antagonist activity

SMILES: Oc1c(I)cc(CN2CCOCC2)c2cccnc12 [Compound 8, 4-((8-hydroxy-7-iodoquinolin-1-ium-5-yl)methyl)morpholin-4-ium chloride]
IC50 (EphB2-EphrinB2; [1]): 690 nM and 1300 nM | IC50 (EphB2-EphrinB2; [2]): 470 nM and 510 nM | IC50 (EphB2-EphrinB2; [3]): 300 nM and 410 nM | IC50 (EphB2-EphrinB2; [4]): 250 nM and 510 nM

SMILES: O=[N+]([O-])c1cc(CN2CCOCC2)c2cccnc2c1O [Compound 10, 4-((8-hydroxy-7-nitroquinolin-1-ium-5-yl)methyl)morpholin-4-ium chloride]
IC50 (EphB2-EphrinB2; [1]): < 10000 nM | IC50 (EphB2-EphrinB2; [2]): < 10000 nM | IC50 (EphB2-EphrinB2; [3]): < 10000 nM | IC50 (EphB2-EphrinB2; [4]): < 10000 nM

SMILES: Oc1ccc(CN2CCOCC2)c2cccnc12 [Compound 1, 5-(morpholinomethyl)quinolin-8-ol]
antagonism of EphB1-EB2 (EphB1-EphrinB2 (EB2)): some inhibitory activity though it was not apparent until higher concentrations | IC50 (EphB2-EphrinB2; [1]): 100000 nM | IC50 (EphB2-EphrinB2; [2]): 9900 nM | IC50 (EphB2-EphrinB2; [3]): 10900 nM | IC50 (EphB2-EphrinB2; [4]): 900 nM

SMILES: Oc1c(Br)cc(CN2CCOCC2)c2cccnc12 [Compound 6, 4-((7-bromo-8-hydroxyquinolin-1-ium-5-yl)methyl)morpholin-4-ium chloride]
IC50 (EphB2-EphrinB2; [1]): 2920 nM | IC50 (EphB2-EphrinB2; [2]): 680 nM | IC50 (EphB2-EphrinB2; [3]): 1040 nM | IC50 (EphB2-EphrinB2; [4]): 500 nM

SMILES: Oc1ccc(CN2CCN(Cc3ccc(C(F)(F)F)cc3)CC2)c2cccnc12 [Compound 48, 5-((4-(4-(trifluoromethyl)benzyl)piperazin-1-yl)methyl)quinolin-8-ol]
IC50 (EphB2-EphrinB2; [1]): 100000 nM | IC50 (EphB2-EphrinB2; [2]): 8120 nM | IC50 (EphB2-EphrinB2; [3]): 12100 nM | IC50 (EphB2-EphrinB2; [4]): 2120 nM

SMILES: Oc1c(Cl)cc(CN2CCOCC2)c2cccnc12 [Compound 4, 4-((7-chloro-8-hydroxyquinolin-1-ium-5-yl)methyl)morpholin-4-ium chloride]
IC50 (EphB2-EphrinB2; [1]): 4290 nM | IC50 (EphB2-EphrinB2; [2]): 900 nM | IC50 (EphB2-EphrinB2; [3]): 940 nM | IC50 (EphB2-EphrinB2; [4]): 630 nM

SMILES: Oc1c(I)cc(CN2CCOCC2)c2cccnc12 [Compound 7, 7-iodo-5-(morpholinomethyl)quinolin-8-ol]
elimination of tetramer (EphB2-EphrinB2; 100 μM): eliminated all tetramer species

antagonism of EphB1-EB2 (EphB1-EphrinB2 (EB2)): did not exhibit any activity
SMILES: Oc1ccc(CN2CCCCC2)c2cccnc12 [Compound 68, 5-(piperidin-1-ylmethyl)quinolin-8-ol, reference compound]

antagonism of EphB1-EB2 (EphB1-EphrinB2 (EB2)): did not exhibit any activity
SMILES: COCc1cc(CN2CCN(C)CC2)c(O)c2ncccc12 [Compound 77, 5-(methoxymethyl)-7-((4-methylpiperazin-1-yl)methyl)quinolin-8-ol, reference compound]

SMILES: COc1ccccc1N1CCN(Cc2cc(Br)c(O)c3ncccc23)CC1 [Compound 70, 7-bromo-5-((4-(2-methoxyphenyl)piperazin-1-yl)methyl)quinolin-8-ol]
antagonism of EphB1-EB2 (EphB1-EphrinB2 (EB2)): may be as effective as A20 at antagonizing EphB1-EB2 and EphB2-EB2 interactions

SMILES: Oc1ccc(CN2CCN(c3ccc(F)cc3F)CC2)c2cccnc12 [Compound 62, 5-((4-(2,4-difluorophenyl)piperazin-1-yl)methyl)quinolin-8-ol]
antagonism of EphB1-EB2 (EphB1-EphrinB2 (EB2)): some inhibitory activity though it was not apparent until higher concentrations

SMILES: O=S1(=O)CCN(Cc2ccc(O)c3ncccc23)CC1 [Compound 15, 4-((8-hydroxyquinolin-1-ium-5-yl)methyl)thiomorpholin-4-ium 1,1-dioxide chloride]
IC50 (EphB2-EphrinB2; [1]): 100000 nM | IC50 (EphB2-EphrinB2; [2]): 6530 nM | IC50 (EphB2-EphrinB2; [3]): 6310 nM | IC50 (EphB2-EphrinB2; [4]): 990 nM

antagonism of EphB1-EB2 (EphB1-EphrinB2 (EB2)): did not exhibit any activity
SMILES: Oc1c(CN2CCCCC2)cc(Cl)c2cccnc12 [Compound 76, 5-chloro-7-(piperidin-1-ylmethyl)quinolin-8-ol, reference compound]

SMILES: Oc1c(Cl)cc(CN2CCOCC2)c2cccnc12 [Compound 3, 7-chloro-5-(morpholinomethyl)quinolin-8-ol]
antagonism of EphB1-EB2 (EphB1-EphrinB2 (EB2)): may be as effective as A20 at antagonizing EphB1-EB2 and EphB2-EB2 interactions
